Earlier results in patent US20180035685A1, “ANTIMICROBIAL COMPOSITIONS” (priority 2015, published 2018).

What was measured:
[1] = stored in cold; applied at 300 ppm
Listeria = details: pure form; Mandalari et al. (2007)

O=c1oc2c(O)c(O)cc3c(=O)oc4c(O)c(O)cc1c4c23 [ellagic acid]
Antimicrobial effect on raw beef MAP meat [1]: no antimicrobial effect

COc1ccc([C@@H]2CC(=O)c3c(O)cc(O[C@@H]4O[C@H](CO)[C@@H](O)[C@H](O)[C@H]4O[C@@H]4O[C@@H](C)[C@H](O)[C@@H](O)[C@H]4O)cc3O2)cc1O [neohesperidin]
Effect on Listerial growth in vitro (Listeria): no effect on Listerial growth
